# Measurements: PubChem BioAssay (NCI)
#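 96-well plates; 48 h exposure; 5 concentrations. Endpoints by linear interpolation between flanking doses. Not reached: highest tested concentration assigned. The concentration for 50% growth inhibition is given as GI50. TGI: concentration producing complete growth inhibition.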
# Tested on: SN12C renal
# Assay: NCI anticancer screen, dose series, 48 h
SMILES,GI50 [µM],TGI [µM]
Cc1[nH]c2ccccc2c(=O)c1CC=C(Cl)Cl,50.3,> 100
C1CCC([PH+](C2CCCCC2)C2CCCCC2[PH+](C2CCCCC2)C2CCCCC2)CC1.O=C(C1[CH-]CCCC1)C1CCCC[N-]1.[Au] (centres undefined),0.262,2.81
O=C(c1ccccc1)C1OC12C(=O)Nc1ccccc12 (centres undefined),,> 100
COc1ccc2nc(NC(=O)C(=O)C(C#N)c3ccc([N+](=O)[O-])cc3)sc2c1 (centres undefined),,> 100
O=C(O)[C@H](NS(=O)(=O)c1ccc([N+](=O)[O-])cc1)c1ccccc1,,> 100
CC(C)C[C@H](NC(=O)/C=C/Cn1ccc2ccccc2c1=O)B(O)O,6.32,> 100
S=C1OC2CCCC[C@H]2O1 (some centres undefined),,> 100
COc1c(CCl)cc(-c2cc(=O)c3ccccc3s2)cc1CCl,,> 100
CSC(C1c2ccccc2N(c2ccc(C)cc2)c2[nH]c(=O)n(C)c(=O)c21)S(=O)(=O)c1ccc(C)cc1 (centres undefined),,> 100
CCOC(=O)NC(=O)c1cn(CCCOC(=O)CCCCCCCCCCC(=O)OCCCn2cc(C(=O)NC(=O)OCC)c(=O)[nH]c2=O)c(=O)[nH]c1=O,,> 100
COc1cc(/C=C(\C#N)c2ccccc2)cc(OC)c1,,> 100
N#Cc1cccnc1Cl,,> 100
CCCCCCCCCCCC(=O)OCC1OC(OC)C(NC(=O)N(CCCl)N=O)C(O)C1O (centres undefined),,29.5
CCn1c(SCc2ccc(C)cc2)nnc1-c1nn(-c2ccc(Cl)cc2Cl)c(-c2ccc(Cl)cc2)c1C,2.31,10.8
COc1ccc(OC)c2c(C(=O)O)c(Cc3ccccc3)ccc12,,> 100
O=C(Nc1c(Cl)cc([N+](=O)[O-])cc1Cl)C(=O)C(C1OC(=O)c2ccccc21)[N+](=O)[O-] (centres undefined),,> 100
Cc1c(C(=O)/C=C/c2ccccc2)[n+](=O)c2ccccc2n1[O-],,33.6
N#CC1CC2(C1)OCCS2 (centres undefined),,> 100
COc1cc(NC(C)CCCN)c2nccc(C)c2c1 (centres undefined),,> 100
C1C[OH+]CC[OH+]CC[OH+]CC[OH+]CC[OH+]1.[Cl-].[V],> 100,> 100
c1ccc(C2Nc3ccccc3C3OCCCC23)cc1 (centres undefined),,> 100

# Tested on: SR leukemia
# Assay: NCI anticancer screen, dose series, 48 h
SMILES,GI50 [µM],TGI [µM]
Nc1ccc(-c2nc3ccc(Cc4ccc5nc(-c6ccc(N)cc6)[nH]c5c4)cc3[nH]2)cc1,1.48,> 100
O=C1[C@@H]2C(c3ccccc3F)=NO[C@@H]2C(=O)N1c1ccc(Cc2ccc(N3C(=O)[C@H]4C(c5ccccc5F)=NO[C@H]4C3=O)cc2)cc1,,> 100
C=CCc1ccc(Oc2cc(CC=C)c3c(c2O)O[C@@H](CO)[C@H]3c2ccc(O)c(-c3cc(CC=C)ccc3O)c2)cc1,,46.9
Cn1c2ccccc2c(=O)c2ccc(Cl)cc21,,> 10
O=C(NCO)NCOCn1c(=O)n(CO)c(=O)n(CO)c1=O,,81.9
CCCSc1nc(COC(=O)NC)c(COC(=O)NC)n1C,,> 100
CCN(CC)c1ccc(N=Nc2ccc(-c3nc4ccc[n+](C)c4s3)cc2)cc1,,53.7
Cn1c(=O)c(Cc2ccccc2F)cc2cnc(NC3CCOCC3)nc21,> 25,> 25
O=C1CSC(/C(=N/Nc2ccccc2)c2nc3ccccc3[nH]2)=N1,,31.1
Cc1[nH]c2ccccc2c(=O)c1CC=C(Cl)Cl,58.1,> 100
C1CCC([PH+](C2CCCCC2)C2CCCCC2[PH+](C2CCCCC2)C2CCCCC2)CC1.O=C(C1[CH-]CCCC1)C1CCCC[N-]1.[Au] (centres undefined),0.329,> 100
CC(C)C[C@H](NC(=O)/C=C/Cn1ccc2ccccc2c1=O)B(O)O,0.887,21.8
S=C1OC2CCCC[C@H]2O1 (some centres undefined),,> 100
COc1c(CCl)cc(-c2cc(=O)c3ccccc3s2)cc1CCl,,> 100
CCOC(=O)NC(=O)c1cn(CCCOC(=O)CCCCCCCCCCC(=O)OCCCn2cc(C(=O)NC(=O)OCC)c(=O)[nH]c2=O)c(=O)[nH]c1=O,,> 100
COc1cc(/C=C(\C#N)c2ccccc2)cc(OC)c1,,> 100
N#Cc1cccnc1Cl,,> 100
CCCCCCCCCCCC(=O)OCC1OC(OC)C(NC(=O)N(CCCl)N=O)C(O)C1O (centres undefined),,18.6
C=CC/C=C/C/C=C/CCCCCCCc1cccc(O)c1C(=O)O,,> 100
COc1ccc(OC)c2c(C(=O)O)c(Cc3ccccc3)ccc12,,> 100
O=C(Nc1c(Cl)cc([N+](=O)[O-])cc1Cl)C(=O)C(C1OC(=O)c2ccccc21)[N+](=O)[O-] (centres undefined),,> 100
Cc1c(C(=O)/C=C/c2ccccc2)[n+](=O)c2ccccc2n1[O-],,66
N#CC1CC2(C1)OCCS2 (centres undefined),,> 100
COc1cc(NC(C)CCCN)c2nccc(C)c2c1 (centres undefined),,53.1

# Tested on: SW-620 colon
# Assay: NCI anticancer screen, dose series, 48 h
SMILES,GI50 [µM],TGI [µM]
Nc1ccc(-c2nc3ccc(Cc4ccc5nc(-c6ccc(N)cc6)[nH]c5c4)cc3[nH]2)cc1,1.8,3.46
O=C1[C@@H]2C(c3ccccc3F)=NO[C@@H]2C(=O)N1c1ccc(Cc2ccc(N3C(=O)[C@H]4C(c5ccccc5F)=NO[C@H]4C3=O)cc2)cc1,,> 100
C=CCc1ccc(Oc2cc(CC=C)c3c(c2O)O[C@@H](CO)[C@H]3c2ccc(O)c(-c3cc(CC=C)ccc3O)c2)cc1,,> 100
Cn1c2ccccc2c(=O)c2ccc(Cl)cc21,,> 10
CC(CO)(CO)NCCCCn1ccc2c1C(=O)c1c(c(O)c3ccccc3c1O)C2=O,5.47,29.2
O=C(NCO)NCOCn1c(=O)n(CO)c(=O)n(CO)c1=O,,56.4
Clc1ccc2c(c1)-c1c3c(nn1-c1ccccc1)-c1ccccc1SC3O2 (centres undefined),,> 100
CCSc1nc(SCC)c2cn[nH]c2n1,39.5,> 100
COc1ccc(CCN2COc3c([C@@H](C)CCC=C(C)C)ccc(C)c3C2)cc1OC,1.91,4.08
O=C1OC2CCCC[C@@H]2C2C[C@]34CCCCC3[C@@H](C(=O)O4)C12 (some centres undefined),,> 100
CN(C)c1cc[c]([Sn]([c]2ccc(N(C)C)cc2)([c]2ccc(N(C)C)cc2)[c]2ccc(N(C)C)cc2)cc1,4.66,20.5
CCCSc1nc(COC(=O)NC)c(COC(=O)NC)n1C,,> 100
O=C1CCC(O)=C1N=Nc1ccccc1,,> 100
CCN(CC)c1ccc(N=Nc2ccc(-c3nc4ccc[n+](C)c4s3)cc2)cc1,,26.1
NC(=O)NCc1c(C(N)=O)ncn1Cc1ccccc1,,> 100
Cn1c(=O)c(Cc2ccccc2F)cc2cnc(NC3CCOCC3)nc21,> 25,> 25
O=C1CSC(/C(=N/Nc2ccccc2)c2nc3ccccc3[nH]2)=N1,,> 100
Cc1[nH]c2ccccc2c(=O)c1CC=C(Cl)Cl,> 100,> 100
O=C(c1ccccc1)C1OC12C(=O)Nc1ccccc12 (centres undefined),,62.6

SMILES,GI50 [µM],TGI [µM]
COc1ccc2nc(NC(=O)C(=O)C(C#N)c3ccc([N+](=O)[O-])cc3)sc2c1 (centres undefined),,> 100
O=C(O)[C@H](NS(=O)(=O)c1ccc([N+](=O)[O-])cc1)c1ccccc1,,> 100
CC(C)C[C@H](NC(=O)/C=C/Cn1ccc2ccccc2c1=O)B(O)O,3.55,> 100
S=C1OC2CCCC[C@H]2O1 (some centres undefined),,> 100
O=C1/C(=C/c2cccc([N+](=O)[O-])c2)COc2ccc(Br)cc21,,> 100
CSC(C1c2ccccc2N(c2ccc(C)cc2)c2[nH]c(=O)n(C)c(=O)c21)S(=O)(=O)c1ccc(C)cc1 (centres undefined),,> 100
CCOC(=O)NC(=O)c1cn(CCCOC(=O)CCCCCCCCCCC(=O)OCCCn2cc(C(=O)NC(=O)OCC)c(=O)[nH]c2=O)c(=O)[nH]c1=O,,> 100
COc1cc(/C=C(\C#N)c2ccccc2)cc(OC)c1,,> 100
N#Cc1cccnc1Cl,,> 100
CCCCCCCCCCCC(=O)OCC1OC(OC)C(NC(=O)N(CCCl)N=O)C(O)C1O (centres undefined),,24.5
C=CC/C=C/C/C=C/CCCCCCCc1cccc(O)c1C(=O)O,,> 100
CCn1c(SCc2ccc(C)cc2)nnc1-c1nn(-c2ccc(Cl)cc2Cl)c(-c2ccc(Cl)cc2)c1C,2.56,12.6
COc1ccc(OC)c2c(C(=O)O)c(Cc3ccccc3)ccc12,,> 100
O=C(Nc1c(Cl)cc([N+](=O)[O-])cc1Cl)C(=O)C(C1OC(=O)c2ccccc21)[N+](=O)[O-] (centres undefined),,> 100
Cc1c(C(=O)/C=C/c2ccccc2)[n+](=O)c2ccccc2n1[O-],,28.3
CN(CCC#N)c1ccc(/C=C(\C#N)c2ccc(Br)cc2)cc1,3.87,> 100
N#CC1CC2(C1)OCCS2 (centres undefined),,> 100
C1C[OH+]CC[OH+]CC[OH+]CC[OH+]CC[OH+]1.[Cl-].[V],> 100,> 100
c1ccc(C2Nc3ccccc3C3OCCCC23)cc1 (centres undefined),,> 100
